From patent US6869929B2, “Use of transcription factors for treating inflammation and other diseases” (Beth Israel Deaconess Medical Center, priority 2000, dated 2005)

Key:
NOS2 promoter [1] = test: ESE-1 transactivation of NOS2 promoter luciferase reporter, cotransfection in RAW cells; assay type: cell-based, murine; details: cotransfection with NOS2 promoter
Description: (§1) A 1516 and 265 bp fragment corresponding to nucleotides (−1485 to +31) and (−234 to +31) of the murine NOS2 gene promoter were subcloned into the PGL2 luciferase reporter(Promega).
(§2) Co-transfections of 2×10^5 RAW cells or RASMCs were carried out with 0.6 μg reporter gene construct DNA and 0.6 μg expression vector DNA using 6 μl lipofectamine (Gibco-BRL) as described (Oettgen, P., et al. 1996. Characterization of NERF, a novel transcription factor related to the Ets factor ELF-1. Mol Cell Biol 16:5091-106). The cells were harvested 16 hours after transfection and assayed for luciferase activity. Transfections for every construct were performed independently in duplicates and repeated 3 times with two different plasmid preparations with similar results. Cotransfection of a second plasmid for determination of transfection efficiency was omitted because potential artifacts with this technique have been reported and because many commonly used viral promoters contain potential binding sites for ets factors (Farr, A., and A. Roman. 1992. A pitfall of using a second plasmid to determine transfection efficiency. Nucleic Acids Res 20:920).
The ability of ESE-1 DN 1 to block transactivation of the NOS2 promoter was tested in RAW cells. Cotransfection of ESE-1 with the NOS2 promoter led to an approximate 12-fold increase in transactivation. […]

ICAM-2 promoter = test: Cotransfection of ESE-1 with luciferase reporter constructs of potential target genes; assay type: cell-based; details: cotransfection of expression plasmid with luciferase reporter
Description: as §2
In an attempt to identify target genes for ESE-1, the ability of ESE-1 to transactivate the promoters of several genes that are induced in response to inflammatory stimuli were tested. […] Transactivation of the ICAM-2 promoter by ESE-1 led to a 3.5 fold induction. […] The NOS2 gene promoter has two important regulatory regions, one that is upstream (−1100 to −800) and one that is in the more proximal promoter (−234 to +31). […]

COX-2 promoter = COX-2 promoter luciferase construct (pXP2/COX-2) in RAW 264.7 cells; assay type: cell-based, human; details: luciferase 16 h
Description: Full-length and dominant-negative mutant ESE-1 cDNAs were inserted into the pCI (Promega) eukaryotic expression vector as described (Oettgen, P., et al. et al. 1997, Mol Cell Biol 17:4419-33). The human COX-2 promoter spanning −170 to +103, kindly provided by Dr. Leslie J. Crofford, University of Michigan, (14) was cloned into the pXP2 luciferase vector (pXP2/COX-2).
(§3) Cotransfections of 3-8×10^5 cells were carried out with 600 ng reporter gene construct DNA and 200 ng expression vector DNA using LipofectAMINE PLUS (Gibco-BRL) for 16 hours as described (Oettgen, P., et al. et al., 1997, Mol Cell Biol 17:4419-33). Transfections were performed independently in duplicate and repeated 3 to 4 times with different plasmid preparations with similar results.
We were interested to know which genes that are associated with inflammatory responses are targeted by ESE-1. We focused on the COX-2 gene, an important target for IL-1β, TNF-α, and LPS in inflammation. Furthermore, the COX-2 promoter contains multiple putative Ets binding sites that are potential targets for ESE-1. A COX-2 promoter luciferase construct, pXP2/COX-2, was transfected into RAW 264.7 cells in the absence or presence of the ESE-1 expression vector, pCI/ESE-1. ESE-1 enhanced COX-2 promoter activity more than 10-fold (FIG. 13a). […]

COL2A1 promoter [2] = test: COL2A1 promoter luciferase cotransfection in T/C-28a2 cells; assay type: cell-based, human; details: T/C-28a2; pGL3 construct; highest concentrations tested
Description: (§4) The COL2A1 sequence spanning −577 to +3428 bp (Goldring M B, et al, J Cell Biochem 1994;54:85-99, 39) was cloned into the pGL2-basic (pGL2B) luciferase reporter gene vector (Promega,) and named pGL2-COL2/4.0. Deletion constructs containing −577/+125 bp, −131/+125 bp, −87/+125 bp were prepared by enzyme digestion of pGL2-COL2/4.0 using PstI, ApaI, and PuuII, followed by ligation. For the deletion constructs −45/+125 bp, −83/+7 bp, and −45/+7 bp, PCR products were generated as described (Osaki et al.) and cloned into the pGL2-Basic luciferase vector. These reporter constructs were used as templates to generate point mutations or internal deletions by PCR mutagenesis employing the oligonucleotides listed in FIG. 16 and the QuikChange™ Site-Directed Mutagenesis Kit (Stratagene, La Jolla, Calif.). DNA fragments containing point mutations were then cloned into the pGL2B vector and confirmed by DNA sequencing using a G2 primer on pGL2 DNA. Deletions were also made in the −577/+127 bp COL2A1 promoter construct using the ExSite™ PCR-Based Site-Directed Mutagenesis Kit (Stratagene).
(§5) Transient transfection experiments were carried out in C-28/I2 cells using LipofectAMINE PLUS™ Reagent (Life Technologies). Cells were seeded in 6-well tissue culture plates at 3.5×10^5 cells/well in DMEM/F12 containing 10% FCS 24 h prior to transfection. For each well, 1 μg of COL2A1-luciferase construct, 6 μl of PLUS reagent and 92 μl of serum-free DMEM/F12 were mixed and incubated for 15 min at room temperature. LipofectAMINE+ reagent (4 μl) in 100 μl of serum-free medium was then added to each reaction mixture and incubation was continued for an additional 30 min at room temperature. Finally, the transfection mixture was combined with 800 μl of serum-free medium and the lipid-nucleic acid complex was transferred to the washed cell monolayer in each well. After incubation for 4 h at 37° C., the transfection mix was diluted with an equal volume of DMEM/F12 containing 2% Nutridoma-SP, and incubation continued for 18 h in the absence or presence of IL-1β. For cotransfections, the cells were incubated for 24 h to permit expression of recombinant proteins prior to treatment with IL-1β for a further 18 h. Cell lysates were prepared by extraction with 200 μl of Reporter Lysis Buffer (Promega) and the protein content was determined using the Coomassie Plus Protein Assay Reagent (PIERCE). Luciferase activities were determined by chemiluminescence assay using the Autolumat LB953 luminometer (EG&G Berthold, Oak Ridge, Tenn.), normalized to the amount of protein. Each data point was calculated as the mean±standard deviation for three independently transfected cultures from one representative of at least three experiments. […]

COL2A1 promoter [3] = test: COL2A1 promoter/intron deletion constructs, transient transfection in C-28/I2 cells; assay type: cell-based, human
Description: as §4
as §5, with “For cotransfections, the cells were incubated for 24 h to permit expression of recombinant proteins prior to treatment with IL-1β for a further 18 h.” left out
To localize the responses to IL-1β and ESE-1 in the COL2A1 promoter, we made several 5′-deletions of the −577/+127 bp promoter construct, which we had previously determined to be responsive to IL-1β.

NOS2 promoter [4] = test: LPS (endotoxin) induction of NOS2 promoter luciferase reporter in RAW cells; assay type: cell-based, murine; details: response to endotoxin (LPS)
Description: as §1, §2
In the presence of LPS, the ESE-1 DN1 protein blocked induction of the NOS2 promoter by LPS by approximately 70-75%. (See FIG. 21C).

ESE-1 promoter = ESE-1 promoter luciferase construct (pXP2/ESE-1) transfection; assay type: cell-based, human; details: RAW 264.7 cells; 16 h
Description: as §3
To investigate the molecular mechanism by which IL-1 β and LPS regulate ESE-1 expression, we examined the response of an ESE-1 promoter luciferase construct after transfection using two cytokine responsive non-epithelial cell types, U-138 MG human glial cells and RAW 264.7 cells, a murine macrophage cell line (Oettgen, P., et al. 1999, Genomics 55:358-62). Whereas the parental pXP2 vector was not stimulated by IL-1β, in U-138 MG cells, IL-1β increased ESE-1 promoter activity up to 5-fold (FIG. 12a). Similarly, LPS enhanced ESE-1 promoter activity ˜9-fold in RAW 264.7 cells (FIG. 12b).

ESE-1 = ESE-1 mRNA RT-PCR in THP-1 monocytic cells; assay type: cell-based, human; details: THP-1 cells; within one hour
Description: U-87 Mg and U-138 Mg (human glioma), THP-1 (human monocytic), RAW 264.7 (murine monocytic), LB-12 (human osteoblast-like large T antigen transformed bone marrow stromal cells), and human chondrocytes were grown and treated with cytokines as described (Apperley, J., et al. 1990. J Bone Mineral Res. 5:S93; Goldring, M. B., et al. 1994. J Clin Invest 94:2307-16; Goldring, S. R., et al. 1983. J Bone Joint Surg 65:575-84; Libermann, T. A., et al. 1987. Embo J. 6:1627-1632).
cDNAs were generated from 1 μg of total RNA using Ready-To-Go™ You-prime First-Strand Beads (Amersham Pharmacia Biotech Inc). RT-PCR amplifications of 0.1 μg cDNA were carried out using a MJResearch thermal cycler PTC-100 as follows: 5 min at 94° C., 20-37 cycles of 30 sec at 94° C., 30 sec at 56° C., and 30 sec at 72° C., followed by 5 min at 72° C. (Oettgen, P., et al. 2000, J Biol Chem 275:1216-25). The sequences of the human ESE-1 primers and the primers for human GAPDH were as described (Oettgen, P., et al. 1999, J Biol Chem 274:29439-52).
Macrophages represent an additional cell type present within RA synovial tissues and are a major target of bacterial endotoxin. We, therefore, examined the effects of lipopolysaccharide (LPS) on ESE-1 expression in monocytes using the human monocytic cell line, THP-1 (FIG. 11e).

induction of the ICAM-2 promoter (ICAM-2 promoter) [fold]	Substance	increase in transactivation of the NOS2 promoter (NOS2 promoter [1]) [fold]	induction of COX-2 promoter activity (COX-2 promoter)	inhibition of COL2A1/4.0 activity (COL2A1 promoter [2]) [%]	response of -131/+127 and -83/+127 bp constructs (COL2A1 promoter [3])	inhibition of -577/+127, -530/+127, -403/+127 bp constructs (COL2A1 promoter [3]; 200 ng, highest amount)	increased expression of pGL2P+2370/+2672 and pGL2B-28/+2122 constructs (COL2A1 promoter [3]; overexpression) [fold]	increase in NOS2 promoter activity (NOS2 promoter [4]) [fold]	increase in ESE-1 promoter activity (ESE-1 promoter) [fold]	ESE-1 expression (ESE-1)
3.5	ESE-1: full-length Ets transcription factor ESE-1 overexpressed from the pCI expression vector	~12	more than 10 fold	20	did not respond	levels of inhibition similar to IL-1β	~10	–	–	–
–	lipopolysaccharide [LPS]	–	more than 20 fold	–	–	–	–	~14	~9	induced ESE-1 expression
